Experimental data taken from patent US20230136562A1, “SPIROUREA DERIVATIVES” (Idorsia Pharmaceuticals Ltd, priority 2020, published 2023).
Where two headings read alike, the source gives them in different places.

System: primary neuronal cultures from embryonic rat brains
Assay: Rat oscillation assay (FLIPR, neuronal calcium oscillations)
Assay type: cell-based
Details: Rattus norvegicus
Procedure, shortened: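 Cortical neurons from E18 Wistar rat embryos, cultured 8–10 days at high density, loaded with 1 μM Fluo-8 AM; calcium oscillations recorded by FLIPR once per second in Mg-free HBSS with 2 mM CaCl2, 20 mM HEPES, pH 7.4. Two acquisitions ("Acute", 500 sec, compound added at 250 sec; "20 min"), ± Kv7 blocker XE-991.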

[1] = 20 min, AUC of fluorescence measured 20 min after compound addition, read-out: FLIPR: IC50 [nM] 20 min
[2] = Acute phase, ratio of AUC fluorescence before and after compound addition, read-out: FLIPR: IC50 [nM] acute

| Compound | IC50 [1] [nM] | IC50 [2] [nM] |
| --- | --- | --- |
| COCC(NC(=O)NC1CC2(CCC2)C1)c1cccc(OCC(F)(F)F)c1 (racemic) [Example 91, (±)-1-{2-Methoxy-1-[3-(2,2,2-trifluoro-ethoxy)-phenyl]-ethyl}-3-spiro[3.3]hept-2-yl-urea] | 1.4 | 3.4 |
| COCC(NC(=O)NC1CC2(CCC2)C1)c1ccnc(OCC(F)(F)F)c1 (racemic) [Example 92, (±)-1-{2-Methoxy-1-[2-(2,2,2-trifluoro-ethoxy)-pyridin-4-yl]-ethyl}-3-spiro[3.3]hept-2-yl-urea] | 0.8 | 1.3 |
| CC(NC(=O)NC1CC2(CCC2)C1)c1ccnc(OCC(F)(F)F)c1 (racemic) [Example 93, (±)-1-Spiro[3.3]hept-2-yl-3-{1-[2-(2,2,2-trifluoro-ethoxy)-pyridin-4-yl]-ethyl}-urea] | 2.2 | 1.9 |
| CN(C)CC(NC(=O)NC1CC2(CCC2)C1)c1ccnc(OCC(F)(F)F)c1 (racemic) [Example 94, (±)-1-{2-Dimethylamino-1-[2-(2,2,2-trifluoro-ethoxy)-pyridin-4-yl]-ethyl}-3-spiro[3.3]hept-2-yl-urea] | 117 | 197 |
| CC(NC(=O)NC1CC2(CCC2)C1)c1cc(F)cc(OCC(F)(F)F)c1 (racemic) [Example 95, (±)-1-{1-[3-Fluoro-5-(2,2,2-trifluoro-ethoxy)-phenyl]-ethyl}-3-spiro[3.3]hept-2-yl-urea] | 48 | 52 |
| CC(NC(=O)NC1CC2(CCC2)C1)c1ccnc(OC(F)(F)F)c1 (racemic) [Example 97, (±)-1-Spiro[3.3]hept-2-yl-3-[1-(2-trifluoromethoxy-pyridin-4-yl)-ethyl]-urea] | 170 | 53 |
| CC(NC(=O)NC1CC2(CCC2)C1)c1cccc(OCC(F)(F)F)c1F (racemic) [Example 98, (±)-1-{1-[2-Fluoro-3-(2,2,2-trifluoro-ethoxy)-phenyl]-ethyl}-3-spiro[3.3]hept-2-yl-urea] | 14 | 11 |
| CC(NC(=O)NC1CC2(CCC2)C1)c1cc(OCC(F)(F)F)ccc1F (racemic) [Example 99, (±)-1-{1-[2-Fluoro-5-(2,2,2-trifluoro-ethoxy)-phenyl]-ethyl}-3-spiro[3.3]hept-2-yl-urea] | 20 | 32 |
| CC(NC(=O)NC1CC2(CCC2)C1)c1ccnc(OC(F)F)c1 (racemic) [Example 100, (±)-1-[1-(2-Difluoromethoxy-pyridin-4-yl)-ethyl]-3-spiro[3.3]hept-2-yl-urea] | 3.6 | 5.9 |
| COCC(Oc1cccc(CNC(=O)NC2CC3(CCC3)C2)n1)C(F)(F)F (racemic) [Example 104, (±)-1-Spiro[3.3]hept-2-yl-3-[6-(2,2,2-trifluoro-1-methoxymethyl-ethoxy)-pyridin-2-ylmethyl]-urea] | 295 | 292 |
| CN(C)CC(Oc1cccc(CNC(=O)NC2CC3(CCC3)C2)n1)C(F)(F)F (racemic) [Example 105, (±)-1-[6-(1-Dimethylaminomethyl-2,2,2-trifluoro-ethoxy)-pyridin-2-ylmethyl]-3-spiro[3.3]hept-2-yl-urea] | 261 | 278 |
| CN(C)CC(Oc1cc(CNC(=O)NC2CC3(CCC3)C2)ccn1)C(F)(F)F (racemic) [Example 106, (±)-1-[2-(1-Dimethylaminomethyl-2,2,2-trifluoro-ethoxy)-pyridin-4-ylmethyl]-3-spiro[3.3]hept-2-yl-urea] | 757 | 535 |
| COCC(Oc1cc(CNC(=O)NC2CC3(CCC3)C2)ccn1)C(F)(F)F (racemic) [Example 107, (±)-1-Spiro[3.3]hept-2-yl-3-[2-(2,2,2-trifluoro-1-methoxymethyl-ethoxy)-pyridin-4-ylmethyl]-urea] | 91 | 72 |
| CC(Oc1cc(F)cc(CNC(=O)NC2CC3(CCC3)C2)c1)C(F)(F)F (racemic) [Example 110, (±)-1-[3-Fluoro-5-(2,2,2-trifluoro-1-methyl-ethoxy)-benzyl]-3-spiro[3.3]hept-2-yl-urea] | 62 | 88 |
| CC(Oc1cccc(C2(NC(=O)NC3CC4(CCC4)C3)CC2)c1)C(F)(F)F (racemic) [Example 111, (±)-1-Spiro[3.3]hept-2-yl-3-{1-[3-(2,2,2-trifluoro-1-methyl-ethoxy)-phenyl]-cyclopropyl}-urea] | 34 | 26 |
| CC(NC(=O)NC1CC2(CCC2)C1)c1ccc(F)c(OCC(F)(F)F)c1 (racemic) [Example 113, (±)-1-{1-[4-Fluoro-3-(2,2,2-trifluoro-ethoxy)-phenyl]-ethyl}-3-spiro[3.3]hept-2-yl-urea] | 22 | 33 |
| CC(Oc1ccnc(CNC(=O)NC2CC3(CCC3)C2)c1)C(F)(F)F (racemic) [Example 117, (±)-1-Spiro[3.3]hept-2-yl-3-[4-(2,2,2-trifluoro-1-methyl-ethoxy)-pyridin-2-ylmethyl]-urea] | 286 | 195 |

| Compound | IC50 [1] [nM] | IC50 [2] [nM] |
| --- | --- | --- |
| CC(Oc1nccc(CNC(=O)NC2CC3(CCC3)C2)n1)C(F)(F)F (racemic) [Example 118, (±)-1-Spiro[3.3]hept-2-yl-3-[2-(2,2,2-trifluoro-1-methyl-ethoxy)-pyrimidin-4-ylmethyl]-urea] | 81 | 116 |
| CC(Oc1cc(CNC(=O)NC2CC3(CC3)C2)ncn1)C(F)(F)F (racemic) [Example 120, (±)-1-Spiro[2.3]hex-5-yl-3-[6-(2,2,2-trifluoro-1-methyl-ethoxy)-pyrimidin-4-ylmethyl]-urea] | 151 | 136 |
| CC(NC(=O)NC1CC2(CC2)C1)c1cccc2c1OC(F)(F)O2 (racemic) [Example 121, (±)-1-[1-(2,2-Difluoro-benzo[1,3]dioxol-4-yl)-ethyl]-3-spiro[2.3]hex-5-yl-urea] | 1210 | 990 |
| O=C(NC1CC2(CC2)C1)NC(CO)c1cc(OCC(F)(F)F)ncn1 (racemic) [Example 122, (±)-1-{2-Hydroxy-1-[6-(2,2,2-trifluoro-ethoxy)-pyrimidin-4-yl]-ethyl}-3-spiro[2.3]hex-5-yl-urea] | 658 | 339 |
| Cc1nc(OCC(F)(F)F)cc(C(CO)NC(=O)NC2CC3(CC3)C2)n1 (racemic) [Example 123, (±)-1-{2-Hydroxy-1-[2-methyl-6-(2,2,2-trifluoro-ethoxy)-pyrimidin-4-yl]-ethyl}-3-spiro[2.3]hex-5-yl-urea] | 367 | 395 |
| CC(NC(=O)NC1CC2(CC2)C1)c1cccc(OC(F)F)c1 (racemic) [Example 124, (±)-1-[1-(3-Difluoromethoxy-phenyl)-ethyl]-3-spiro[2.3]hex-5-yl-urea] | 280 | 69 |
| CC(NC(=O)NC1CC2(CC2)C1)c1cccc(S(F)(F)(F)(F)F)c1 (racemic) [Example 127, (±)-1-(1-(3-(pentafluoro-λ^6-sulfaneyl)phenyl)ethyl)-3-(spiro[2.3]hexan-5-yl)urea] | 22 | 19 |
| CC(NC(=O)NC1CC2(CC2)C1)c1cc(OCC(F)(F)F)ccc1F (racemic) [Example 129, (±)-1-{1-[2-Fluoro-5-(2,2,2-trifluoro-ethoxy)-phenyl]-ethyl}-3-spiro[2.3]hex-5-yl-urea] | 254 | 212 |
| CC(NC(=O)NC1CC2(CC2)C1)c1cccc(OCC(F)(F)F)c1F (racemic) [Example 131, (±)-1-{1-[2-Fluoro-3-(2,2,2-trifluoro-ethoxy)-phenyl]-ethyl}-3-spiro[2.3]hex-5-yl-urea] | 52 | 29 |
| CC(NC(=O)NC1CC2(CC2)C1)c1cc(F)cc(OCC(F)(F)F)c1 (racemic) [Example 132, (±)-1-{1-[3-Fluoro-5-(2,2,2-trifluoro-ethoxy)-phenyl]-ethyl}-3-spiro[2.3]hex-5-yl-urea] | 110 | 79 |
| COc1c(C(C)NC(=O)NC2CC3(CC3)C2)cccc1C(F)(F)F (racemic) [Example 133, (±)-1-[1-(2-Methoxy-3-trifluoromethyl-phenyl)-ethyl]-3-spiro[2.3]hex-5-yl-urea] | 670 | 396 |
| CC(Oc1cccc(C2(NC(=O)NC3CC4(CC4)C3)CC2)c1)C(F)(F)F (racemic) [Example 135, (±)-1-Spiro[2.3]hex-5-yl-3-{1-[3-(2,2,2-trifluoro-1-methyl-ethoxy)-phenyl]-cyclopropyl}-urea] | 115 | 133 |
| COc1ccc(C(F)(F)F)cc1C(C)NC(=O)NC1CC2(CC2)C1 (racemic) [Example 137, (±)-1-[1-(2-Methoxy-5-trifluoromethyl-phenyl)-ethyl]-3-spiro[2.3]hex-5-yl-urea] | 1020 | 1240 |
| O=C(NC1CC2(CC2)C1)NC(CCO)c1cccc(OC(F)(F)F)c1 (racemic) [Example 138, (±)-1-[3-Hydroxy-1-(3-trifluoromethoxy-phenyl)-propyl]-3-spiro[2.3]hex-5-yl-urea] | 92 | 60 |
| CC(NC(=O)NC1CC2(CC2)C1)c1ccnc(OC(F)F)c1 (racemic) [Example 139, (±)-1-[1-(2-Difluoromethoxy-pyridin-4-yl)-ethyl]-3-spiro[2.3]hex-5-yl-urea] | 365 | 186 |
| CC(NC(=O)NC1CC2(CC2)C1)c1cccc(C(F)(F)F)c1 (racemic) [Example 140, (±)-1-Spiro[2.3]hex-5-yl-3-[1-(3-trifluoromethyl-phenyl)-ethyl]-urea] | 59 | 27 |
| CC(NC(=O)NC1CC2(CC2)C1)c1cccc(OC(F)(F)F)c1 (racemic) [Example 141, (±)-1-Spiro[2.3]hex-5-yl-3-[1-(3-trifluoromethoxy-phenyl)-ethyl]-urea] | 26 | 22 |
